From patent US10364245B2 (CHIESI FARMACEUTICI S.p.A., priority 2017, dated 2019) come the findings set out here.

The structures appear in SMILES notation. Counter-ions that a name gives are not always drawn.

One experiment deals with T1, p38 alpha (Homo sapiens, UniProt Q16539).
T1 construct: purchased Invitrogen PV3304
As to the kind of experiment: P38 alpha enzyme inhibition assay (Alphascreen kinase activity assay). Format: biochemical. As to conditions: 100 pM p38 alpha, 2 hours preincubation at 25° C., 250 μM ATP, ATF-2 fusion protein; read-out: p38α inhibition. Summed up: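 Phosphorylation of ATF-2 fusion protein (0.3 μg/ml) read by AlphaScreen with anti-phospho-ATF2 antibody after 1 h kinase reaction at 25 °C, initiated by 250 μM ATP. Compounds first incubated 2 h at 25 °C with 100 pM p38 alpha in pH 7.5 HEPES buffer, 1% DMSO. IC50 derived from concentration-response data.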
On the technique in general: In Alpha technology, singlet oxygen from a donor bead excites a nearby acceptor bead.

Experiment [1] has as its system Peripheral Blood Mononuclear Cells (PBMCs), TNFα release. Description: LPS-stimulated PBMC TNFα release assay. Type of experiment: cell-based. As to conditions: human PBMC, LPS (10 ng/ml), 18 h, compound 1 h before LPS; read-out: LPS-stimulated PBMC TNFα release inhibition. An outline of the steps: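 TNFα in cell-free supernatant, read on MSD plates, gave % inhibition curves and IC50 (≥3 separate experiments). Healthy-donor PBMCs had 1 h compound exposure at 37 °C in 1% FBS medium, then 18 h stimulation with 10 ng/ml LPS, after a 3 h serum-free rest.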

T1 sequence (Q16539 whole entry): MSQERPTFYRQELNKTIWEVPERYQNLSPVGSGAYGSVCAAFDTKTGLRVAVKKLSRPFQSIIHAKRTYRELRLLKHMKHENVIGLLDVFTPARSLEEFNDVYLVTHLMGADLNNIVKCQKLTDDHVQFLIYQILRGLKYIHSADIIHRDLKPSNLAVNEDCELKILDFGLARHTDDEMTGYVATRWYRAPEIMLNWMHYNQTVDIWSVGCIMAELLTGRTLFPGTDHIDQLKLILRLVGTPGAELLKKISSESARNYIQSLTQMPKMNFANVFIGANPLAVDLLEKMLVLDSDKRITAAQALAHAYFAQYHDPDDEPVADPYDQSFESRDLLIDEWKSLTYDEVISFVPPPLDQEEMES

As for `CC(C)(C)c1cc(NC(=O)N[C@H]2CC[C@@H](Oc3ccc4nnc(C(C)(C)C)n4c3)c3ccccc32)cc(C(=O)NCCCN2CCOCC2)n1` [Example 187, 6-(tert-butyl)-4-(3-((1S,4R)-4-((3-(tert-butyl)-[1,2,4]triazolo[4,3-a]pyridin-6-yl)oxy)-1,2,3,4-tetrahydronaphthalen-1-yl)ureido)-N-(3-morpholinopropyl)-picolinamide], the IC50 lay within 1 to 10 nM at p38 alpha and 1 to 5 nM in experiment [1].
For `CN(CCO)CCNC(=O)c1cc(NC(=O)N[C@H]2CC[C@@H](Oc3ccc4nnc(C(C)(C)C)n4c3)c3ccccc32)cc(C(C)(C)C)n1` [Example 188, 6-(tert-butyl)-4-(3-((1S,4R)-4-((3-(tert-butyl)-[1,2,4]triazolo[4,3-a]pyridin-6-yl)oxy)-1,2,3,4-tetrahydronaphthalen-1-yl)ureido)-N-(2-((2-hydroxyethyl)(methyl)-amino)ethyl)picolinamide] the same measures were < 1 nM and 1 to 5 nM.
For `CC(C)(C)c1cc(NC(=O)N[C@H]2CC[C@@H](Oc3ccc4nnc(C(C)(C)C)n4c3)c3ccccc32)cc(C(=O)NCCN2CCCOCC2)n1` [Example 189, N-(2-(1,4-oxazepan-4-yl)ethyl)-6-(tert-butyl)-4-(3-((1S,4R)-4-((3-(tert-butyl)-[1,2,4]triazolo[4,3-a]pyridin-6-yl)oxy)-1,2,3,4-tetrahydronaphthalen-1-yl)ureido)picolinamide] the same measures were 1 to 10 nM and 1 to 5 nM.
For `COCC(C)(C)c1nnc2ccc(O[C@@H]3CC[C@H](NC(=O)Nc4cc(C(=O)NCCN(C)C)nc(C(C)(C)C)c4)c4ccccc43)cn12` [Example 190, 6-(tert-butyl)-N-(2-(dimethylamino)ethyl)-4-(3-((1S,4R)-4-((3-(1-methoxy-2-methylpropan-2-yl)-[1,2,4]triazolo[4,3-a]pyridin-6-yl)oxy)-1,2,3,4-tetrahydronaphthalen-1-yl)ureido)picolinamide] the same measures were < 1 nM and 1 to 5 nM.
For the compound `CCN(C)CCNC(=O)c1cc(NC(=O)N[C@H]2CC[C@@H](Oc3ccc4nnc(C(C)(C)C)n4c3)c3ccccc32)cc(C(C)(C)C)n1` [Example 191, 6-(tert-butyl)-4-(3-((1S,4R)-4-((3-(tert-butyl)-[1,2,4]triazolo[4,3-a]pyridin-6-yl)oxy)-1,2,3,4-tetrahydronaphthalen-1-yl)ureido)-N-(2-(ethyl(methyl)amino)-ethyl)picolinamide], the IC50 lay within 1 to 10 nM at p38 alpha and 1 to 5 nM in experiment [1].
The matching figures for `COCCN(C)CCNC(=O)c1cc(NC(=O)N[C@H]2CC[C@@H](Oc3ccc4nnc(C(C)(C)C)n4c3)c3ccccc32)cc(C(C)(C)C)n1` [Example 192, 6-(tert-butyl)-4-(3-((1S,4R)-4-((3-(tert-butyl)-[1,2,4]triazolo[4,3-a]pyridin-6-yl)oxy)-1,2,3,4-tetrahydronaphthalen-1-yl)ureido)-N-(2-((2-methoxyethyl)(methyl)-amino)ethyl)picolinamide]: 1 to 10 nM and 1 to 5 nM.
For `COC1CN(CCNC(=O)c2cc(NC(=O)N[C@H]3CC[C@@H](Oc4ccc5nnc(C(C)(C)C)n5c4)c4ccccc43)cc(C(C)(C)C)n2)C1` [Example 193, 6-(tert-butyl)-4-(3-((1S,4R)-4-((3-(tert-butyl)-[1,2,4]triazolo[4,3-a]pyridin-6-yl)oxy)-1,2,3,4-tetrahydronaphthalen-1-yl)ureido)-N-(2-(3-methoxyazetidin-1-yl)ethyl)picolinainide] the same measures were 1 to 10 nM and 1 to 5 nM.
For `CC(C)(C)c1cc(NC(=O)N[C@H]2CC[C@@H](Oc3ccc4nnc(C(C)(C)C)n4c3)c3ccccc32)cc(C(=O)NCCN2CC[C@H](O)C2)n1` [Example 195, 6-(tert-butyl)-4-(3-((1S,4R)-4-((3-(tert-butyl)-[1,2,4]triazolo[4,3-a]pyridin-6-yl)oxy)-1,2,3,4-tetrahydronaphthalen-1-yl)ureido)-N-(2-((S)-3-hydroxypyrrolidin-1-yl)ethyl)picolinamide] the same measures were < 1 nM and > 5 nM.
As for `COCC(C)(C)c1nnc2ccc(O[C@@H]3CC[C@H](NC(=O)Nc4cc(C(=O)NCC(C)(C)N(C)C)nc(C(C)(C)C)c4)c4ccccc43)cn12` [Example 196, 6-(tert-butyl)-N-(2-(dimethylamino)-2-methylpropyl)-4-(3-((1S,4R)-4-((3-(1-methoxy-2-methylpropan-2-yl)-[1,2,4]triazolo[4,3-a]pyridin-6-yl)oxy)-1,2,3,4-tetrahydronaphthalen-1-yl)ureido)picolinamide], the IC50 at p38 alpha is 1 to 10 nM; in experiment [1], > 5 nM.
The matching figures for `CC(C)(C)c1cc(NC(=O)N[C@H]2CC[C@@H](Oc3ccc4nnc(C(C)(C)C)n4c3)c3ccccc32)cc(C(=O)NCCN2CC(O)C2)n1` [Example 197, 6-(tert-butyl)-4-(3-((1S,4R)-4-((3-(tert-butyl)-[1,2,4]triazolo[4,3-a]pyridin-6-yl)oxy)-1,2,3,4-tetrahydronaphthalen-1-yl)ureido)-N-(2-(3-hydroxyazetidin-1-yl)ethyl)picolinamide]: < 1 nM and > 5 nM.
As for `CN1CCN(C(C)(C)c2nnc3ccc(O[C@@H]4CC[C@H](NC(=O)Nc5cc(CO)nc(C(C)(C)C)c5)c5ccccc54)cn23)CC1` [Example 198, 1-(2-(tert-butyl)-6-(hydroxymethyl)pyridin-4-yl)-3-((1S,4R)-4-((3-(2-(4-methylpiperazin-1-yl)propan-2-yl)-[1,2,4]triazolo[4,3-a]pyridin-6-yl)oxy)-1,2,3,4-tetrahydronaphthalen-1-yl)urea], the IC50 on p38 alpha is < 1 nM; in experiment [1], > 5 nM.
The matching figures for `CN(C)CCNC(=O)c1cc(NC(=O)N[C@H]2CC[C@@H](Oc3ccc4nnc(C(C)(C)N5CCN(C)CC5)n4c3)c3ccccc32)cc(C(C)(C)C)n1` [Example 199, 6-(tert-Butyl)-N-(2-(dimethylamino)ethyl)-4-(3-((1S,4R)-4-((3-(2-(4-methylpiperazin-1-yl)propan-2-yl)-[1,2,4]triazolo[4,3-a]pyridin-6-yl)oxy)-1,2,3,4-tetrahydronaphthalen-1-yl)ureido)picolinamide formate salt]: 1 to 10 nM and > 5 nM.
Consider `CN1CCN(C(C)(C)c2nnc3ccc(O[C@@H]4CC[C@H](NC(=O)Nc5cc(C(=O)NCCO)nc(C(C)(C)C)c5)c5ccccc54)cn23)CC1` [Example 200, 6-(tert-Butyl)-N-(2-hydroxyethyl)-4-(3-((1S,4R)-4-((3-(2-(4-methylpiperazin-1-yl)propan-2-yl)-[1,2,4]triazolo[4,3-a]pyridin-6-yl)oxy)-1,2,3,4-tetrahydronaphthalen-1-yl)ureido)picolinamide formate salt], for which the IC50 at p38 alpha was < 1 nM; in experiment [1] it was > 5 nM.
The matching figures for `CC[C@H](C)c1nnc2ccc(O[C@@H]3CC[C@H](NC(=O)Nc4cc(C(=O)NCCN(C)C)nc(C(C)(C)C)c4)c4ccccc43)cn12` [Example 201, 6-(tert-Butyl)-4-(3-((1S,4R)-4-((3-((S)-sec-butyl)-[1,2,4]triazolo[4,3-a]pyridin-6-yl)oxy)-1,2,3,4-tetrahydronaphthalen-1-yl)ureido)-N-(2-(dimethylamino)ethyl)-picolinamide formate salt]: < 1 nM and 1 to 5 nM.
